Reference: article PMC6968694 (Emerging Microbes & Infections, 2020)

B1: Glycinamide-RNase-transformylase T from Mycobacterium tuberculosis (enzyme)
chain: MIDGWTEEQHEPTVRHERPAAPQDVRRVMLLGSAEPSRELAIALQGLGAEVIAVDGYVGAPAHRIADQSVVVTMTDAEELTAVIRRLQPDFLVTVTAAVSVDALDAVEQADGECTELVPNARAVRCTADREGLRRLAADQLGLPTAPFWFVGSLGELQAVAVHAGFPLLVSPVAGVAGQGSSVVAGPNEVEPAWQRAAGHQVQPQTGGVSPRVCAESVVEIEFLVTMIVVCSQGPNGPLIEFCAPIGHRDADAGELESWQPQKLSTAALDAAKSIAARIVKALGGRGVFGVELMINGDEVYFADVTVCPAGSAWVTVRSQRLSVFELQARAILGLAVDTLMISPGAARVINPDHTAGRAAVGAAPPADALTGALGVPESDVVIFGRGLGVALATAPEVAIARERAREVASRLNVPDSRE
notes: also called MtbPurT; PurT

Assays:
phBCCPPurT = target: T1, phBCCPPurT (Pyrococcus horikoshii, UniProt O58056); experiment: biochemical; assay type: binding; conditions: read-out: apparent Kd
T1 construct: gene purT

SEC = target: the molecule itself; experiment: SEC

T1 sequence (O58056 whole entry): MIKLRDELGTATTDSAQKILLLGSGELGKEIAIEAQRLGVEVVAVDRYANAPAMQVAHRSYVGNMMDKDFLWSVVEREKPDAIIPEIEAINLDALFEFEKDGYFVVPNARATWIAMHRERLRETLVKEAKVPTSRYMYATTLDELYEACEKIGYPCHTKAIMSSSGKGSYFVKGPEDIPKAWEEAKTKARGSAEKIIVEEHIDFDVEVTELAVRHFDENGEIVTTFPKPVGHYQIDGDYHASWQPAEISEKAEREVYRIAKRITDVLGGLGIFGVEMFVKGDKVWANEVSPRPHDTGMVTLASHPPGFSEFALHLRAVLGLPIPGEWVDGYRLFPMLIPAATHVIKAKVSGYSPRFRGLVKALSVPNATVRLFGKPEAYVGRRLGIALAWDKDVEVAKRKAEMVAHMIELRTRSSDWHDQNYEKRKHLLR

| Molecule | Kd (phBCCPPurT) [µM] | stoichiometry N (SEC) |
| --- | --- | --- |
| Nc1ncnc2c1ncn2[C@@H]1O[C@H](CO[P@](=O)(O)O[P@](=O)(O)O[P@@](=O)(O)S)[C@@H](O)[C@H]1O [ATPγS] | 41.8 ± 7.21 | – |
| B1 | – | 2 |
